Patent US20040101521A1, “Iron sequestration or elimination to reduce neurodegeneration or Parkinsons disease progression” (The Buck Institute for Research on Aging, priority 2002, published 2004)

Columns and labels:
monoamine oxidase-B = assay: MAO-B activity in brain homogenates; format: in vivo, mouse; settings: CQ-fed, n=4
Method: Brain homogenates were analyzed by the toulene extraction method using 10 μM 14-C labeled PEA as substrate (NEN, […]) as previously described (Wei et al. (1996) J. Neurosci. Res. 46: 666-673; Wei et al. (1997) J. Neurosci. Res. 50: 618-626). Values are reported as cpm/μg protein.

[1] = lipophilic; cited from earlier work
[2] = mouse, in vivo; cited from earlier work
[3] = Total SN iron content by mass spectrometry and MRI in CQ-fed mice; format: in vivo, mouse; settings: CQ 30 mg/kg daily oral gavage, 8 weeks, C57B1 mice
Method: Mice were housed according to standard animal care protocols, fed ad libitum, kept on a 12-hr light/dark cycle and maintained in a pathogen-free environment in the Buck Institute Vivarium. Animals used for studies were young adults (2-6 months of age). […] For CQ studies, C57B1 mice were obtained from Jackson Labs and randomized for therapy trials. CQ was suspended in 0.05% carboxymethylcellulose (Sigma) and delivered via oral gavage at a daily dosage of 30 mg/kg as previously described for a period of 8 weeks (Cherny et al. (2001) Neuron 30: 665-676); controls received vehicle alone.
MRI studies were performed using a Bruker AMX500 11.7 tesla MRI system as previously described (Gilissen et al. (1998) Am. J. Primatol. 45: 291-299). Brains were fixed as described above and MRI performed in the coronal plane. Comparisons of SN hypointensity (dark area) on T2-weighted MR samples encompassing SNc, SNr, and red nucleus were performed (IPLab Spectrum, Scientific Image Processing from Scanalytics, Inc.)(Morgan et al., 1998). Intensity was normalized using cortical white matter as control.
SN was dissected, snap frozen in liquid nitrogen, lypholized and dry weight/tissue measured. Preweighed lypholized samples were next taken up in 0.1 ml of concentrated nitric acid (Aristar, BDH) and allowed to digest overnight. […]

[4] = tested on: MPTP-induced dopaminergic SN cell loss; assay: Stereological TH+ SN neuron counts after MPTP; format: in vivo, mouse
Method: Neuronal counts were performed on TH+ positive SN neurons using the unbiased dissector method (West (1993) Neurobiol. Aging 14: 275-285). Fixed coronal brain sections (40 μm) were immunostained with TH antibody (1:500 dilution, Chemicon), coverslipped in aqueous medium and TH+ cells counted from a total of 15-20 sections in each field per brain (i.e. every second section) at a magnification of 100× using the optical fractionator approach.
(§1) Animals were injected with either 15 mg/kg body weight MPTP or saline every 2 hrs, 4 doses. Dopamine, DOPAC, and HVA or MPP+ from dissected striata were analyzed by I-PLC using a 5 micrometer C-18 reverse phase column and precolumn (Brownlee Labs) followed by electrochemical detection with a glassy carbon electrode (Klivenyi et al. (2000) J. Neurosci. 20: 1-7).

[5] = tested on: MPTP-induced oxidative stress; assay: SN GSH levels after MPTP; format: in vivo, mouse; settings: CQ pretreated animals, 24 hrs after MPTP, n=6
Method: Following MPTP or saline injection, GSH levels were measured in the SN by the method of Griffith (Griffith (1980) Anal. Biochem. 106; 207-212).

[6] = Phase II, similar dosage, with B12 supplementation; cited from earlier work
[7] = Open field analysis of spontaneous motor activity; format: in vivo, mouse; settings: mice fed CQ up to 8 weeks vs. saline-fed, n=8
Method: 6-8 mice in each category were tested. Behavioral parameters were monitored in a Coulbourn Instrument Tru Scan activity monitor. Motor activities were recorded every 100 ms for a 10 minute period. Tru Scan 99 software was used to generate experimental protocols and to acquire and store the data. The data was exported to EXCEL and analyzed via one way ANOVA.

[8] = tested on: MPTP-mediated oxidative stress; assay: Slot blot of 4-HNE-protein conjugates and protein carbonyls in SN after MPTP; format: in vivo, mouse; settings: CQ pretreated animals, 24 hrs after MPTP, n=6
Method: SN were dissected and homogenized in 10 mM HEPES-KOH, pH 7.2, 2 mM EDTA, 0.1% CHAPS, 5 mM dithiothreitol (DTT), 1 mM phenylmethylsulfonyl fluoride, 10 μg/ml pepstatin A, 10 μg/ml aprotinin, and 20 μg/ml leupeptin (Nicholson et al. (1995) Nature 376: 37-43). 15 μg of total protein from each sample was either run on a 15% SDS-PAGE gel (BioRad) and transferred to nitrocellulose membrane or directly slotted onto membrane. […] Autoradiography was performed with enhanced chemiluminescence (Amersham Pharmacia). For 4HNNE-protein conjugates and protein carbonyls, relative optical band density were quantified using a Chemilmager 5500 (Alpha Innotech Corporation). Reported values are the results of three independent experiments.

MPTP-induced toxicity = assay: Striatal dopamine, DOPAC and HVA by HPLC after MPTP; format: in vivo, mouse
Method: as §1

[9] = Yassin et al. 2000; cited from earlier work
plaque formation = settings: Cherny et al. 2001; cited from earlier work

In the case of Oc1c(I)cc(Cl)c2cccnc12 [CQ, 5-chloro-7-iodo-8-hydroxyquinoline], the MAO-B activity (monoamine oxidase-B) is given as 4500±950 cpm/μg protein, the Blood-brain barrier passage [1] is given as “freely crosses the blood-brain barrier” and the “Toxicity of the compound in mice” value [2] is given as “lack of toxicity”. The “Reduction of total SN iron levels, CQ-fed vs. saline-fed animals” value [3] was “approximately 30%”, the “Decrease in SN TH+ cell numbers following MPTP” value ([4]; CQ-fed animals, 7 days after MPTP) was 25% and the “SN TH+ cell numbers” value ([4]; CQ-fed, MPTP-treated, n=5) was 11,462±915. For the same compound, the “Change in SN GSH following MPTP” value [5] was “no significant changes”, the “Adverse effects attributable to CQ administration” value [6] was “No adverse effects” and the “Adverse behavioral effects in open field tests” value [7] was “no significant signs of adverse behavioral effects”. For the same compound, the “Change in 4-HNE-protein conjugates in SN following MPTP” value [8] was “no significant changes”, the “Change in protein carbonyl levels in SN following MPTP” value [8] was “no significant changes” and the “Difference in striatal dopamine levels, saline vs. CQ-fed” value (MPTP-induced toxicity; absence of MPTP treatment) was “No significant difference”. The “Loss of striatal dopamine following MPTP” value (MPTP-induced toxicity; animals pretreated with CQ, 7 days after MPTP) was 41%, the “Depletion in systemic iron levels” value [9] was “does not result in depletion” and the “Levels of brain and serum vitamin B12” value [9] was “lower levels”. For the same compound, the “Plaque formation and behavioral declines in AD transgenic mouse model” value (plaque formation) was “inhibit plaque formation and accompanying behavioral declines”.
